Results from PubChem BioAssay (NCI).
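A five-concentration, 48-hour dose response in 96-well plates underlies each endpoint, interpolated linearly between surrounding concentrations. TGI: concentration producing complete growth inhibition.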

How the values were obtained:
Experiment in all cases: DTP human tumour cell line panel, 48 h
786-0 renal = system: 786-0 renal
A498 renal = system: A498 renal
A549 NSCLC = system: A549 NSCLC
ACHN renal = system: ACHN renal
CAKI-1 renal = system: CAKI-1 renal
CCRF-CEM leukemia = system: CCRF-CEM leukemia
COLO 205 colon = system: COLO 205 colon
DLD-1 colon = system: DLD-1 colon
DMS 273 small cell lung = system: DMS 273 small cell lung
EKVX NSCLC = system: EKVX NSCLC
HCC-2998 colon = system: HCC-2998 colon
HCT-116 colon = system: HCT-116 colon
HCT-15 colon = system: HCT-15 colon
HL-60(TB) leukemia = system: HL-60(TB) leukemia
HOP-18 NSCLC = system: HOP-18 NSCLC
HOP-62 NSCLC = system: HOP-62 NSCLC
HOP-92 NSCLC = system: HOP-92 NSCLC
HT29 colon = system: HT29 colon
IGROV1 ovarian = system: IGROV1 ovarian
KM12 colon = system: KM12 colon
KM20L2 colon = system: KM20L2 colon
LOX IMVI melanoma = system: LOX IMVI melanoma
LXFL 529 NSCLC = system: LXFL 529 NSCLC
M14 melanoma = system: M14 melanoma
M19-MEL melanoma = system: M19-MEL melanoma
MALME-3M melanoma = system: MALME-3M melanoma
MOLT-4 leukemia = system: MOLT-4 leukemia
NCI-H226 lung = system: NCI-H226 lung
NCI-H460 lung = system: NCI-H460 lung
NCI-H522 lung = system: NCI-H522 lung
OVCAR-3 ovarian = system: OVCAR-3 ovarian
OVCAR-4 ovarian = system: OVCAR-4 ovarian
OVCAR-5 ovarian = system: OVCAR-5 ovarian
OVCAR-8 ovarian = system: OVCAR-8 ovarian
RPMI-8226 leukemia = system: RPMI-8226 leukemia
RXF 393 renal = system: RXF 393 renal
SF-268 CNS = system: SF-268 CNS
SF-295 CNS = system: SF-295 CNS
SF-539 CNS = system: SF-539 CNS
SK-MEL-28 melanoma = system: SK-MEL-28 melanoma
SK-MEL-5 melanoma = system: SK-MEL-5 melanoma
SK-OV-3 ovarian = system: SK-OV-3 ovarian
SN12C renal = system: SN12C renal
SNB-19 CNS = system: SNB-19 CNS
SNB-75 CNS = system: SNB-75 CNS
SNB-78 CNS = system: SNB-78 CNS
SR leukemia = system: SR leukemia
SW-620 colon = system: SW-620 colon
TK-10 renal = system: TK-10 renal
U251 CNS = system: U251 CNS
UACC-257 melanoma = system: UACC-257 melanoma
UACC-62 melanoma = system: UACC-62 melanoma
UO-31 renal = system: UO-31 renal

Measured: TGI

C[C@]12CCC(=O)C(O)=C1CCC2=O
> 100 µM: 786-0 renal | A498 renal | A549 NSCLC | ACHN renal | CAKI-1 renal | CCRF-CEM leukemia | COLO 205 colon | DLD-1 colon | DMS 273 small cell lung | EKVX NSCLC | HCC-2998 colon | HCT-116 colon | HCT-15 colon | HL-60(TB) leukemia | HOP-18 NSCLC | HOP-62 NSCLC | HOP-92 NSCLC | HT29 colon | IGROV1 ovarian | KM12 colon | KM20L2 colon | LOX IMVI melanoma | LXFL 529 NSCLC | M14 melanoma | M19-MEL melanoma | MALME-3M melanoma | MOLT-4 leukemia | NCI-H226 lung | NCI-H460 lung | NCI-H522 lung | OVCAR-3 ovarian | OVCAR-4 ovarian | OVCAR-5 ovarian | OVCAR-8 ovarian | RPMI-8226 leukemia | RXF 393 renal | SF-268 CNS | SF-295 CNS | SF-539 CNS | SK-MEL-28 melanoma | SK-MEL-5 melanoma | SK-OV-3 ovarian | SN12C renal | SNB-19 CNS | SNB-75 CNS | SNB-78 CNS | SR leukemia | SW-620 colon | TK-10 renal | U251 CNS | UACC-257 melanoma | UACC-62 melanoma | UO-31 renal
